Test results taken from patent US8546086B2, “Use of neuregulin-β as an indicator and/or target” (Mind-NRG SA, priority 2000, dated 2013).

How the values were obtained:
Format in all cases: cell-based, rat
Neuregulin-β = experiment: 2-D-PAGE / MALDI-TOF-MS / ESI-MS of glutamate-induced changes in hippocampal proteins; conditions: for Quantity of Neu-β (32 kDa spot) in 2-D-PAGE: FIG. 4: B=glutamate, C=glutamate+MK-801 (10 μM MK-801)
From the text: (§1) Hippocampal cells were stimulated with stimulation buffer (in mM): NaCl (125), KCL (5), CaCl2 (2-6), MgCl2 (0.8) glucose (5-10), HEPES (20), L-glutamate (0.01-0.1), glycine (0.01), bicucullin (0.01), pH 7.2; (A=control, B=glutamate, C=glutamate+MK-801; MK-801 is a specific glutamate receptor antagonist). In this connection, the measured or control quantity indicative of performance was a fluorescence signal measured using Fura-2, which signal is proportional to the calcium concentration (all the substances can be found in chemical catalogues supplied by Torris or Sigma).
Furthermore, proteins which change under the chosen experimental conditions, or otherwise behave in a conspicuous manner, are characterized and identified using the techniques of proteome research, namely by means of two-dimensional gel electrophoresis, MALDI-TOF-MS and ESI-MS.
Neuregulin-β was identified by means of two-dimensional PAGE using isoelectric focusing and employing immobilized, nonlinear pH gradients of from 3 to 10 and linear gradients of from 4 to 7 as the first dimension and SDS-PAGE (12% acrylamide) as the second dimension.
The protein was excised from the gels, subjected to a trypsin cleavage within the gel and subsequently [lacuna] mass-spectroscopically by means of MALDI-TOF mass fingerprint and ESI peptide sequencing (Corthals et al., Identification of Proteins by Mass-Spectrometry, in: Proteome Research, Two-Dimensional Gel-Electrophoresis and Identification Methods, Thierry Rabilloud, Ed., Springer, Berlin (2000), 197-232).
The identity of the protein was confirmed by analyzing selected peptides by means of MS/MS analysis using ion traps, electrospray, mass spectroscopy of the peptide mixture, which was not fractionated and which had previously been analyzed by MALDI-TOF. The MS/MS analysis of m/z 798.4 was sufficient in order, inter alia, to identify the 88-94 peptide of neuregulin-β. The MS/MS analysis of m/z=842.7 confirmed the sequence of the peptide around position 81-87. […]

hippocampal cells [1] = experiment: Intracellular 26Mg stable isotopic tracer by ICP-MS; conditions: hippocampal neurons, 100 μm glutamate for 30 seconds, +22° C.; control 25 nM/mg of protein
Description: (§2) Suitable cell culture systems, in the case of neuregulin-β hippocampal primary cultures obtained from prenatal or neonatal rats (described in, for example, “Rat hippocampal neurons in low-density culture”, K. Goslin, H. Asmussen, G. Banker; in “Culturing Nerve Cells, 2nd edition 1998, pp. 339 ff; K. Goslin and G. Banker, eds. MIT Press, Cambridge, Mass., USA), are cultured on the above-described slides, introduced into the flow cell and initially characterized microscopically (morphological micrographs, etc. in the phase contrast microscope). […]
(§3) Almost in parallel to this, the perfusate is subjected to a synchronized fractionation and analysis; in the case of hippocampal neurons, of neurotransmitters, by means of HPLC using fluorescence detection, in the case of other low molecular weight extracellular components, by means of EMI-MS, and in the case of stable isotopic tracers and metal ions, by means of ICP-MS.
(§4) In the above-described set up, the following parameters were determined simultaneously or in an explicitly correlating manner. […] Accompanying this, are the simultaneous changes in the release of neurotransmitter (GABA), the influx of Mg into the cells, as detected using the stable isotopic tracer ^26Mg. […]

hippocampal cells [2] = experiment: Fura-2 fluorescence imaging of intracellular calcium after glutamate stimulation in flow cell; conditions: hippocampal neurons
From the text: as §1, with “Sigma). […]” for “Sigma).”
The fluorescence signals in a larger number of cells are detected, in a time-resolved manner, in dependence on the stimulation conditions (temperature, active compound).
as §4

hippocampal cells [3] = experiment: Neurotransmitter (GABA) release in perfusate by fluorescence HPLC; conditions: hippocampal neurons, 100 μm glutamate for 30 seconds, +22° C.; control 87 pMol
Description: as §2, §3, §4

C[C@]12N[C@H](Cc3ccccc31)c1ccccc12 [MK-801]
Quantity of Neu-β (32 kDa spot) in 2-D-PAGE (Neuregulin-β): only weakly present, or cannot be found at all

N[C@@H](CCC(=O)O)C(=O)O [glutamate, L-glutamate]
Quantity of Neu-β (32 kDa spot) in 2-D-PAGE (Neuregulin-β): substantially larger quantity
Neuregulin-β expression (prestimulated) (Neuregulin-β; hippocampal neurons, glutamate stimulated, control not expressed): Strongly
26Mg (intracellular) concentration (prestimulated) (hippocampal cells [1]): 45 nM/mg of nM/mg of protein
Calcium (intracellular) concentration (prestimulated) (hippocampal cells [2]; 100 μm glutamate for 30 seconds, +22° C., control 350 nM): 850 nM
Calcium inflow (Fura-2) (hippocampal cells [2]; qualitative): induces an inflow of calcium ions
GABA measured quantity (prestimulated) (hippocampal cells [3]): 74 pmol
